Reference: patent US12203938B2, “Levetiracetam immunoassays” (ARK Diagnostics, Inc., priority 2008, dated 2025)

What was measured:
[1] = system: antibody #12019-P8; experiment: Specificity / crossreactivity of the immunoassay with levetiracetam metabolite; format: binding, rabbit; settings: for % Cross Reactivity: 100 × apparent concentration of levetiracetam / concentration of crossreactant
From the text: Antibodies obtained using any of the disclosed techniques are screened or purified not only for their ability to react with levetiracetam, but for a low cross-reactivity with potential interfering substances. “Cross-reactivity” may be determined in a quantitative immunoassay by establishing a standard curve using known dilutions of the target analyte, levetiracetam. The standard curve is then used to calculate the apparent concentration of the interfering substance present in various known amounts in samples assayed under similar condition. The cross-reactivity can be calculated as the apparent concentration divided by the actual concentration multiplied by 100. A certain immunoassay for determining cross-reactivity is a homogeneous enzyme immunoassay using a wild type G6PDH as described in U.S. Pat. No. 3,817,837 or mutant G6PDH engineered to contain a cysteine per subunit as described in U.S. Pat. Nos. 6,033,890, 6,090,567 and 6,455,288. Furthermore, the cross-reactivity can be determined in the same type of immunoassay in which the antibody will ultimately be used.
(§1) The levetiracetam derivative antibodies and enzyme conjugates may be advantageously used in a homogeneous assay format to detect levetiracetam in samples. An enzyme immunoassay or ARK Assay, which is a homogeneous enzyme immunoassay experiment, was performed to test antibodies prepared as described in Example 22. The ARK Assay for levetiracetam was conducted using a liquid, ready-to-use, two-reagent kit. A clinical chemistry analyzer useful to set up the assay is HITACHI 917. The HITACHI 917 is an automated biochemistry analyzer used by medical laboratories to process biological fluid specimens, such as urine, cerebrospinal fluid, and most commonly, blood. Manufactured by Boehringer Mannheim, the HITACHI 917 is a commonly used routine chemical chemistry. Levetiracetam containing sample was incubated with antibody reagent followed by the addition of the enzyme conjugate reagent. The enzyme conjugate activity decreases upon binding to the antibody. […] The oxidation of G6P is coupled with the reduction of NAD to NADH, which was measured at 340 nm. The change in the absorbance at 340 nm was measured spectrophotometrically. The levetiracetam concentration in a specimen was measured in terms of G6PDH activity. The increase in the rate at 340 nm was due to the formation of NADH and is proportional to the enzyme conjugate activity. An assay calibration curve was generated using levetiracetam spiked into negative calibrator matrix. The assay rate increases with increasing the concentration of drug in the sample.
The major metabolic pathway of levetiracetam (24% of dose) is an enzymatic hydrolysis of the acetamide group. The metabolites have no known pharmacological activity and are renally excreted. To human serum negative for levetiracetam was added levetiracetam dissolved in methanol to achieve a concentration of concentration of 30 μg/mL of levetiracetam (FIG. 1(1)).
To a second sample was added 2-pyrrolidone-N-butyric acid dissolved in methanol to achieve a concentration of 150.0 μg/mL 2-pyrrolidone-N-butyric acid (FIG. 1(2)). To a third sample was added 30 μg/mL of levetiracetam plus 406.4 μg/mL 2-pyrrolidone-N-butyric acid (FIG. 1(2)). The samples were assayed on the HITACHI 917. The levetiracetam metabolite, 2-pyrrolidone-N-butyric acid was tested in the immunoassay for potential crossreactivity with Enzyme Conjugate Reagent #110607-D63-E containing conjugate (44-G6PDH) and Antibody Reagent #11341P4-6-Ab containing antibody #12019-P8.

[2] = system: rabbit polyclonal antibody #12019-P8; experiment: Homogeneous enzyme immunoassay (ARK Assay) calibration curve on HITACHI 917, conjugate (44-G6PDH); format: binding
Description: Rabbit polyclonal antibody #12019-P8 was used to measure a substantial change in enzyme activity, generate a calibration curve, and evaluate assay precision, accuracy and specificity. The antibody was added into the antibody diluent to prepare the antibody reagent. The antibody reagent consists of antibody as prepared above, buffer, stabilizers, preservatives, and the substrates for the enzyme conjugate nicotinamide adenine dinucleotide (NAM and glucose-6-phosphate. Enzyme conjugate comprising compound (44-G6PDH) G6PDH was added into the conjugate reagent to prepare the enzyme conjugate reagent. The enzyme conjugate reagent comprises the conjugate, buffer, stabilizers and preservatives. Enzyme conjugate (44-G6PDH) was used with rabbit polyclonal antibody #12019-P8 in examples below. This technique is generally applicable to produce polyclonal antibodies to levetiracetam derivatives and assess their utility.
as §1
Levetiracetam was dissolved in methanol to give a stock solution of 1000 μg/mL. Pooled human serum was aliquoted in 10 mL portions. Levetiracetam stock solution was added to the aliquots of human serum in preparing a series of known concentrations of levetiracetam calibrators ranging from 0 to 100 μg/mL. Similarly, Quality Control samples were prepared (15.0, 35.0 and 75.0 μg/mL). The antibody/substrate reagent #11341P4-6-Ab containing antibody ##12019-P8 was assayed with enzyme reagent #110607-D63-E containing conjugate (44-G6PDH). Calibration curves were generated on the HITACHI 917 automated clinical chemistry analyzer, as described in Example 23 by assaying each level in duplicate.

[3] = in vivo; cited from earlier work

Row | Reaction Rate (mA/min) Average of Duplicates ([2]; levetiracetam calibrator 5.0 μg/mL in pooled human serum) | Reaction Rate (mA/min) Average of Duplicates ([2]; levetiracetam calibrator 10.0 μg/mL in pooled human serum) | Reaction Rate (mA/min) Average of Duplicates ([2]; levetiracetam calibrator 25.0 μg/mL in pooled human serum) | Reaction Rate (mA/min) Average of Duplicates ([2]; levetiracetam calibrator 50.0 μg/mL in pooled human serum) | Reaction Rate (mA/min) Average of Duplicates ([2]; levetiracetam calibrator 100.0 μg/mL in pooled human serum) | Compound | Levetiracetam Result ([1]; Concentration Tested 150.0 μg/mL in human serum) | % Cross Reactivity ([1]; Concentration Tested 150.0 μg/mL) | Levetiracetam Result ([1]; Concentration Tested 406.4 μg/mL in human serum) | % Cross Reactivity ([1]; Concentration Tested 406.4 μg/mL) | Crossreactivity of antibody #12019-P8 (in words) ([1]; conjugate (44-G6PDH), HITACHI 917) | Major metabolic pathway: enzymatic hydrolysis of the acetamide group [3] | Levetiracetam Result ([1]; Concentration Tested 30.0 μg/mL in human serum) | % Cross Reactivity ([1]; Concentration Tested 30.0 μg/mL)
1 |  |  |  |  |  | 2-pyrrolidone-N-butyric acid | 0 µg/mL | 0% | 0 µg/mL | 0% | does not crossreact |  |  | 
2 | 547.4 mA/min | 561.2 mA/min | 586.9 mA/min | 607.5 mA/min | 626.0 mA/min | CC[C@@H](C(N)=O)N1CCCC1=O (single isomer, unassigned) [Levetiracetam] |  |  |  |  |  | 24 % of dose | 29.9 µg/mL | 100%
